Test [1] has as its system zfTac3ra. Kind of test: Receptor transactivation assay, SRE-Luc reporter (PKC activation), COS-7 cells expressing zfTac3ra. It is filed as cell-based, zebrafish. The settings on record: mean ± SEM. The method in brief:
(§1)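 COS-7 cells were cotransfected with zebrafish tac3ra or tac3rb (or human NK3R), an SRE-Luc (PKC) or CRE-Luc (PKA) reporter and β-galactosidase. After 36 h serum starvation, cells were stimulated with vehicle or various concentrations of human or zebrafish NKBs or analogs for 6 h. Luciferase was normalized to β-galactosidase; triplicates, three independent sets.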

Test [2] relates to zfTac3rb. As to the kind of experiment: Receptor transactivation assay, SRE-Luc reporter (PKC activation), COS-7 cells expressing zfTac3rb. It is filed as cell-based, zebrafish. The settings on record: mean ± SEM. The method in brief: as §1
Test [3] concerns sexually mature female zebrafish. Kind of test: In vivo effect of NKBs in zebrafish: LH secretion after intraperitoneal injection. The settings on record: single intraperitoneal injection; for LH secretion: 20 pmol/g body weight, sexually mature female zebrafish. On the procedure: In vivo studies involved administering NKBa, NKBb or NKF and the analogues thereof, denoted by SEQ ID NO. 40-42 and 44-46, respectively to immature fish (20 fish/treatment). The circulating levels of E2, 11KT, LH and FSH were determined prior to hormonal manipulations, in order to confirm that these fish were indeed sexually immature. The fish were injected intramuscularly (i.m.) or intraperitonealy (i.p.) at various doses. Adult female zebra fish were injected intraperitoneally with 20 pmol/g body weight. Control fish were injected with saline. Plasma samples were collected at time 0, and specific times after the administration of the peptide/s, to determine the levels of E2, 11KT, LH and FSH.
To further characterize the role of the NKB/NKBR system in fish reproduction the in vivo biological function of zebrafish NKB peptides was next examined.

Test [4] concerns NK-2. The following applies: GPI; cited from earlier work.
The test system of test [5] is zfTac3rb. Kind of test: Receptor transactivation assay, CRE-Luc reporter (PKA activation), COS-7 cells expressing zfTac3rb. The following applies: mean ± SEM. The format is cell-based, zebrafish. Summed up:
as §1

For test [6], the system named is zfTac3ra. Kind of test: Receptor transactivation assay, CRE-Luc reporter (PKA activation), COS-7 cells expressing zfTac3ra. The format is cell-based, zebrafish. The following applies: mean ± SEM. The method in brief:
as §1

For test [7], the system named is Tilapia pituitary cells. As to the kind of experiment: Gonadotropin release from tilapia pituitary dispersed cells. The following applies: 10 nM, 4 hr. The format is cell-based. On the procedure: Tilapia pituitary cells were subjected to enzymatic dispersion. Pituitary cells were stimulated with 10 nM of the NKBa or NKF analogue, denoted by SEQ ID NO.44 and SEQ ID NO.46, respectively, for 4 hr, when the medium was collected. […] Stimulation of tilapia pituitary cells with GnRH at [10 nM] was used as a control.

The test system of test [8] is Juvenile Tilapia. Kind of test: Gonadotropin release in vivo from juvenile tilapia (plasma LH and FSH by ELISA). Details: species or system Tilapia (Oreochromis niloticus). On the procedure:
Tilapia females (two-months old) were injected with the NKBa analogue denoted by SEQ ID NO.44 or the NKF analogue denoted by SEQ ID NO.46 at 0.5 or 5 μg/kg body weight (BW). Blood was withdrawn from the caudal vein and plasma Luteinizing hormone (LH) and Follicle-stimulating hormone (FSH) levels were measured using a homologous sensitive enzyme-linked immunosorbent assay (ELISA), as described by Aizen et al. 2007 [33].
A general note: ELISA stands for enzyme-linked immunosorbent assay.

The test system of test [9] is Mature female carp. As to the kind of experiment: Gonadotropin release from mature carp in vivo (LH by ELISA). On the procedure: Mature female carp, just before spawning, were injected with NKBa, NKBb and NKF analogues, denoted by SEQ ID NO.44, SEQ ID NO.45 and SEQ ID NO.46, respectively (20 μg/kg body weight). LH levels was measured by specific ELISA, according to Aizen et al. 2012 [33].

In test [10] the target is T1, huNK3R (Homo sapiens, UniProt P29371).
T1 construct: host or cells: COS-7
T1 sequence (P29371 1-465): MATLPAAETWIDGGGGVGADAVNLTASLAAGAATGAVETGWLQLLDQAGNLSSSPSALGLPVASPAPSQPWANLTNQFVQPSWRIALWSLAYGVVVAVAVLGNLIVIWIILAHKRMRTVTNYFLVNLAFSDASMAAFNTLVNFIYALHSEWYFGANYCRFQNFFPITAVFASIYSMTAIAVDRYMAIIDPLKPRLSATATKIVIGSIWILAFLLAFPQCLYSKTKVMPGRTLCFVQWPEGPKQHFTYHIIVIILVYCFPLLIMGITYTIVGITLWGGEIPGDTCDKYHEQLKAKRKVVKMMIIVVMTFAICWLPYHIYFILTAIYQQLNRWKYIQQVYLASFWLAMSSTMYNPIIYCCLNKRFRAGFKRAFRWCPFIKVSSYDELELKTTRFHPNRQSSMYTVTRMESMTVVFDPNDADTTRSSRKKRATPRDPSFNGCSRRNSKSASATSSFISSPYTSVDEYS
Kind of test: Receptor transactivation assay, CRE-Luc reporter (PKA activation), COS-7 cells expressing human NK3R. The format is cell-based. The following applies: Table 5, CRE-Luc follows PKA activation, mean ± SEM.
Procedure: In order to study the signaling pathways of the novel zebrafish NKBs, the entire coding regions of zftac3ra (denoted by SEQ ID NO:6) or zftac3rb (denoted by SEQ ID NO:7), or the cDNA clone for human NK3R (obtained from the Missouri S&T cDNA Resource Center, were inserted into pcDNA3.1 (Invitrogen). The luciferase assay was conducted according to Biran et al., 2008 [4] COS-7 cells were grown in DMEM supplemented with 10% FBS, 1% glutamine, 100 U/ml penicillin, and 100 mg/ml streptomycin (Biological Industries) under 5% CO2 until confluent. Cotransfection of either pc-zftac3ra, pc-zftac3rb or pc-Htac3r (at 3 μg/plate), a reporter plasmid (at 2 μg/plate), and pCMV-β-galactosidase (at 1 μg/plate) was carried out with FuGENE 6.0 reagent (Roche). The cells were serum starved for 36 h, stimulated with vehicle or various concentrations of either human (Sigma) or zebrafish NKBs for 6 h, and then harvested and analyzed. Lysates prepared from the harvested cells were assayed for both luciferase activity and β-galactosidase activity, which was used as an internal standard to normalize the luciferase activity directed by the test plasmid. […]
The response, binding selectivity and signal transduction pathways of the novel tachykinin receptors to their agonists were evaluated by functional expression analysis, using COS-7 cells. […]

The target in test [11] is T1, huNK3R. As to the kind of experiment: Receptor transactivation assay, SRE-Luc reporter (PKC activation), COS-7 cells expressing human NK3R. The format is cell-based.
Procedure: In order to study the signaling pathways of the novel zebrafish NKBs, the entire coding regions of zftac3ra (denoted by SEQ ID NO:6) or zftac3rb (denoted by SEQ ID NO:7), or the cDNA clone for human NK3R (obtained from the Missouri S&T cDNA Resource Center, were inserted into pcDNA3.1 (Invitrogen). The luciferase assay was conducted according to Biran et al., 2008 [4] COS-7 cells were grown in DMEM supplemented with 10% FBS, 1% glutamine, 100 U/ml penicillin, and 100 mg/ml streptomycin (Biological Industries) under 5% CO2 until confluent. Cotransfection of either pc-zftac3ra, pc-zftac3rb or pc-Htac3r (at 3 μg/plate), a reporter plasmid (at 2 μg/plate), and pCMV-β-galactosidase (at 1 μg/plate) was carried out with FuGENE 6.0 reagent (Roche). The cells were serum starved for 36 h, stimulated with vehicle or various concentrations of either human (Sigma) or zebrafish NKBs for 6 h, and then harvested and analyzed. Lysates prepared from the harvested cells were assayed for both luciferase activity and β-galactosidase activity, which was used as an internal standard to normalize the luciferase activity directed by the test plasmid. Transfection experiments were performed in triplicate with three independently isolated sets.
To validate the specificity of the serum-responsive element (SRE)-Luc and cAMP-responsive element (CRE)-Luc reporter systems, specific activators for PLC/PKC and AC/PKA signaling pathways were used in control experiments.
The target in test [12] is T2, NKB receptors (human NKBR, zebrafish Tac3ra, Tac3rb) (Homo sapiens, UniProt P29371).
T2 construct: expressed in transfected cells; host or cells: COS-7
T2 sequence (P29371 1-465): T1 sequence (P29371 1-465)
Kind of test: Receptor transactivation assay, statements in words across SRE-Luc and CRE-Luc reporters and receptors. The format is cell-based. The settings on record: human NKBR (huNK3R), in both signal transduction systems (SRE-Luc and CRE-Luc). On the procedure: (§2) In order to study the signaling pathways of the novel zebrafish NKBs, the entire coding regions of zftac3ra (denoted by SEQ ID NO:6) or zftac3rb (denoted by SEQ ID NO:7), or the cDNA clone for human NK3R (obtained from the Missouri S&T cDNA Resource Center, were inserted into pcDNA3.1 (Invitrogen). The luciferase assay was conducted according to Biran et al., 2008 [4] COS-7 cells were grown in DMEM supplemented with 10% FBS, 1% glutamine, 100 U/ml penicillin, and […] streptomycin (Biological Industries) under 5% CO2 until confluent. Cotransfection of either pc-zftac3ra, pc-zftac3rb or pc-Htac3r (at 3 μg/plate), a reporter plasmid (at 2 μg/plate), and pCMV-β-galactosidase (at 1 μg/plate) was carried out with FuGENE 6.0 reagent (Roche). The cells were serum starved for 36 h, stimulated with vehicle or various concentrations of either human (Sigma) or zebrafish NKBs for 6 h, and then harvested and analyzed. Lysates prepared from the harvested cells were assayed for both luciferase activity and β-galactosidase activity, which was used as an internal standard to normalize the luciferase activity directed by the test plasmid. Transfection experiments were performed in triplicate with three independently isolated sets. Protein structure prediction of zebrafish NKBa, NKBb or NKF were performed on I-Tasser servers.
(§3) The response, binding selectivity and signal transduction pathways of the novel tachykinin receptors to their agonists were evaluated by functional expression analysis, using COS-7 cells.
(§4) Thus, the ability of the three novel piscine peptides (namely, NKBa, NKBb and NKF, denoted by SEQ ID NO.40, 41 and 42), as well as the ability of the three analogous agonistic peptides, namely, NKBa-analog, NKBb-analog and NKF-analog, to differentially activate the different tac3 receptors, using SRE as a reporter gene that follows PKC activation and CRE as a reporter gene for the PKA pathway, was tested. Human NK3R (human NKB receptor) and human NKB served as controls.

In test [13] the test system is NKB receptors (human NKBR, zebrafish Tac3ra, Tac3rb). The test is described as above. It is filed as cell-based. The following applies: both zebrafish tac3 receptors, in both signal transduction systems. On the procedure:
as §2, §3, §4

Setting [14] is: Table 5, COS-7 cells, SRE-Luc follows PKC activation, read-out: EC50 SRE-Luc zfTac3ra.
The mark [15] stands for this setting: Table 7 (native peptides and analogues), PKC activation, read-out: EC50 using SRE, zfTac3ra.
Setting [16] is: Table 5, COS-7 cells, SRE-Luc follows PKC activation, read-out: EC50 SRE-Luc zfTac3rb.
Setting [17] is: Table 7 (native peptides and analogues), PKC activation, read-out: EC50 using SRE, zfTac3rb.
Where [18] appears, read: Table 5, COS-7 cells, CRE-Luc follows PKA activation, read-out: EC50 CRE-Luc zfTac3rb.
[19] abbreviates: Table 6 (native peptides and analogues), PKA activation, read-out: EC50 using CRE-Luc, zfTac3rb.
[20] abbreviates: Table 5, COS-7 cells, CRE-Luc follows PKA activation, read-out: EC50 CRE-Luc zfTac3ra.
[21] abbreviates: Table 6 (native peptides and analogues), PKA activation, read-out: EC50 using CRE-Luc, zfTac3ra.
Where [22] appears, read: Juvenile Tilapia, injected at 0.5 or 5 μg/Kg BW.
Where [23] appears, read: tilapia females two-months old, injected 5 μg/kg BW, listed as NKF analogue.

Entries after “also recorded” stand apart in the source; their conditions may differ. *1 amine or outer side, *2 acyl side, *3 side chain or, on linkers, in order; H or OH if unused. Where a SMILES comes first, the peptide text is derived from it. [ ]: non-standard residue; d: D form. NMeF = CN[C@@H](Cc1ccccc1)C(=O)O; Suc = O=C(CCC(=O)[*:2])[*:1]

Turning to `CSCC[C@H](NC(=O)[C@H](CC(C)C)NC(=O)CNC(=O)[C@H](Cc1ccccc1)N(C)C(=O)[C@H](Cc1ccccc1)NC(=O)[C@H](CC(=O)O)NC(=O)CCC(=O)O)C(N)=O` [Senktide, Succ-Asp-Phe-N(Me)Phe-Gly-Leu-Met-NH2, reference compound] (Suc-DF[NMeF]GLM-NH2), the EC50 is 2.67 ± 1.44 nM in test [1] (setting [14]); 2.68 ± 1.44 nM in test [1] (setting [15]); 2.72 ± 1.54 nM in test [2] (setting [16]); 2.72 ± 1.54 nM in test [2] (setting [17]); more than 200000 nM in [4]; 20.1 ± 15.1 nM in test [5] (setting [18]). Besides, the EC50 in test [5] (setting [19]) was 20.1 ± 15.1 nM; in [6] (setting [20]), 49 ± 14.9 nM; in [6] (setting [21]) it was 49 ± 14.9 nM. The LH secretion entry in test [3] was “less pronounced”.
Consider `CSCC[C@H](NC(=O)[C@H](CC(C)C)NC(=O)CNC(=O)[C@H](C(C)C)N(C)C(=O)[C@H](Cc1ccccc1)NC(=O)[C@H](CO)NC(=O)[C@H](CC(=O)O)NC(=O)CCC(=O)O)C(N)=O` [zfNKF-analog, Succ-Asp-Ser-Phe-N(Me)Val-Gly-Leu-Met-NH2], for which the EC50 stood at 0.31 nM in [1] (setting [15]), 0.54 ± 0.39 nM in [2] (setting [17]), 7.75 nM in test [5] (setting [19]) and 9.14 ± 1.27 nM in [6] (setting [21]). Further, the “release of FSH from tilapia pituitary cells” value in test [7] was “significantly increased”. Moreover, in test [8] (setting [22]), the FSH secretion entry is “significant increase”. For the same compound, in test [8] (setting [22]), the LH secretion entry was “significant increase”. Moreover, in test [8] (setting [23]), the “plasma FSH level” value is listed as “significant increase; also recorded: increased significantly”. Also, the “plasma LH level” value in [8] (setting [23]) is “significant increase”. In addition, in test [9] (mature female carp just before spawning, injected 20 μg/kg body weight, listed as NKF analogue), the LH level result was “significant elevation; also recorded: increased the level of LH significantly”. In addition, in test [9] (mature female carp, 20 μg/kg body weight, throughout the experiment), the “persistence of the LH effect” value is listed as “remained constant throughout the experiment”.
Take `CC[C@H](C)[C@H](NC(=O)[C@H](CC(=O)O)NC(=O)[C@H](CC(N)=O)NC(=O)[C@@H](N)Cc1ccc(O)cc1)C(=O)N[C@@H](CC(=O)O)C(=O)N[C@@H](Cc1ccc(O)cc1)C(=O)N[C@@H](CC(=O)O)C(=O)N[C@@H](CO)C(=O)N[C@@H](Cc1ccccc1)C(=O)N[C@H](C(=O)NCC(=O)N[C@@H](CC(C)C)C(=O)N[C@@H](CCSC)C(N)=O)C(C)C` [zfNKF] (H-YNDIDYDSFVGLM-NH2): the EC50 in test [1] (setting [14]) came out at 0.54 ± 0.13 nM; in test [1] (setting [15]) it was 0.55 nM; in [2] (setting [16]), 0.36 ± 0.16 nM; in [2] (setting [17]) it was 0.37 ± 0.16 nM; in test [10] it was 4.36 ± 1.25 nM; in test [5] (setting [18]) it was 1.8 ± 1.55 nM. Also, the EC50 in test [5] (setting [19]) worked out at 1.8 nM; in test [11] (Table 5, COS-7 cells, SRE-Luc follows PKC activation, mean ± SEM) it was 0.52 ± 0.18 nM; in test [6] (setting [20]), 4.94 ± 1.83 nM; in [6] (setting [21]), 4.94 ± 1.83 nM. Besides, the LH secretion result in test [3] is given as “significant increase; also recorded: significant LH secretion”. Besides, the “magnitude of the induced LH discharge” value in [3] (compared with GnRH) is “comparable with that observed in response to GnRH”. Further, the “SRE-driven luciferase activity, response” value in test [11] (COS-7 cells transiently transfected with human NK3R) is “elicited an increased response”. Besides, the “potency” value is listed as “high potency” in test [12] and “most potent among all tachykinins examined” in [13].

In general, EC50 refers to the concentration needed to bring the measured effect to its halfway point.

The values above are taken from patent US20150072933A1, “NOVEL SEQUENCES FOR THE CONTROL OF REPRODUCTION IN FISH” (Yissum Research Development Company of the Hebrew …, priority 2011, published 2015).
